Measured values reported in patent US20090131444A1 (published 2009).
Counter-ions that a name gives are not always drawn.

melting point	SMILES
> 230 °C (dec.)	COc1ccc2nccc(NC(=O)[C@@H]3CC[C@@H](NCc4cc5c(cn4)OCCO5)CO3)c2n1 (as salt: hydrochloride)
220 °C	COc1ccc2ncc(Cl)c(NC(=O)[C@@H]3CC[C@@H](NCc4cc5c(cn4)OCCO5)CO3)c2c1 (as salt: hydrochloride)
191 °C	COc1ccc2ncc(Cl)c(OC[C@@H]3CC[C@@H](NCc4cc5c(cn4)OCCO5)CO3)c2c1 (as salt: hydrochloride)
